In patent publication US20030232860A1, “Medicine comprising dicyanopyridine derivative” (priority 2000, published 2003) one finds melting point data, which are given here for 36 compounds.

Where a name gives a salt, the structure may show the parent alone.

`CSc1nc(NS(C)(=O)=O)c(C#N)c(-c2ccsc2)c1C#N` [Example 45, N-(3,5-dicyano-6-methylsulfanyl-4-thiophen-3-ylpyridin-2-yl)methanesulfonamide] yielded a melting point greater than 250 °C.

On to `COc1nc(N)c(C#N)c(-c2ccc3cc[nH]c3c2)c1C#N` (as salt: salt) (hydrate or solvate) [Example 171], for which the melting point was in the range of 270 to 272 °C. The same measure for `CNc1nc(OC)c(C#N)c(-c2ccccc2)c1C#N` [Example 360]: 216 to 218 °C; for `COc1nc(N)c(C#N)c(-c2cc(F)ccc2F)c1C#N` [Example 126, 2-amino-4-(2,5-difluorophenyl)-6-methoxypyridine-3,5-dicarbonitrile]: 201 to 202 °C. With `COc1nc(SC)c(C#N)c(-c2ccccc2)c1C#N` [Example 371], the melting point lay in the range of 168 to 170 °C. The figure for `COc1nc(NCCO)c(C#N)c(-c2ccccc2)c1C#N` [Example 362, 2-[(2-hydroxyethyl)amino]-6-methoxy-4-phenylpyridine-3,5-dicarbonitrile] is 153 to 155 °C; for `CCN(CC)CCOc1ccc(-c2c(C#N)c(N)nc(OC)c2C#N)cc1.Cl` (hydrate or solvate) it is 132 to 133 °C. Consider `COc1nc(NC(=O)CCc2ccccc2)c(C#N)c(-c2ccccc2F)c1C#N` [Example 402, N-[3,5-dicyano-4-(2-fluorophenyl)-6-methoxypyridin-2-yl]-3-phenylpropionamide], for which the melting point lay in the range of 183 to 184 °C. In turn, `N#Cc1c(N)nc(OCc2ccccc2)c(C#N)c1-c1cccs1` [Example 378] yielded a melting point of 186 to 187 °C. The figure for `COc1nc(N)c(C#N)c(-c2ccc[nH]2)c1C#N` [Example 169] is 198 to 199 °C; for `N#Cc1c(N)nc(O)c(C#N)c1-c1ccc(N)cc1` [Example 21, 2-amino-(4-aminophenyl)-6-hydroxypyridine-3,5-dicarbonitrile] it is greater than 300 °C. The same measure for `N#Cc1c(N)nc(SCc2ccccc2)c(C#N)c1-c1cccs1` [Example 386]: 208 to 209 °C. Take `CCOc1nc(N)c(C#N)c(-c2ccccc2)c1C#N` [Example 179]: the melting point was in the range of 233 to 234 °C. The same measure for `COc1nc(N)c(C#N)c(-c2ccccc2)c1C#N` [Example 2]: 251 to 252 °C; for `COc1nc(N)c(C#N)c(-c2ccc3cccnc3c2)c1C#N` (as salt: HCl) [Example 172, 2-amino-6-methoxy-4-quinolin-7-ylpyridine-3,5-dicarbonitrile]: 245 to 254 °C (dec.). In turn, `COc1nc(NC(=O)COCc2ccccc2)c(C#N)c(-c2ccccc2F)c1C#N` [Example 399, 2-benzyloxy-N-[3,5-dicyano-4-(2-fluorophenyl)-6-methoxypyridin-2-yl]acetamide] had a melting point of 164 to 166 °C. Compound `CSc1nc(N)c(C#N)c(C)c1C#N` [Example 75] registered a melting point of 246 to 247 °C. `COc1nc(N)c(C#N)c(-c2ccc(NS(C)(=O)=O)cc2)c1C#N` [Example 38, N-[4-(2-amino-3,5-dicyano-6-methoxypyridin-4-yl)phenyl]methanesulfonamide] showed a melting point of 265 to 266 °C. The figure for `COCCC(=O)Nc1nc(OC)c(C#N)c(-c2ccccc2F)c1C#N` [Example 404, N-[3,5-dicyano-4-(2-fluorophenyl)-6-methoxypyridin-2-yl]-3-methoxypropionamide] is 115 to 116 °C; for `N#Cc1c(N)nc(O)c(C#N)c1Cc1ccccc1` [Example 434] it is 314 to 315 °C. The figure for `COCC(=O)Nc1nc(OC)c(C#N)c(-c2c(F)cccc2F)c1C#N` [Example 62, N-[3,5-dicyano-4-(2,6-difluorophenyl)-6-methoxypyridin-2-yl]-2-methoxyacetamide] is 181 to 182 °C. As for `COc1nc(NC(=O)c2ccccn2)c(C#N)c(-c2ccccc2F)c1C#N` [Example 412, N-[3,5-dicyano-4-(2-fluorophenyl)-6-methoxypyridin-2-yl]pyridine-2-carboxamide], the melting point is 219 to 220 °C.

Consider `COc1nc(N)c(C#N)c(-c2cnc(N)s2)c1C#N` (as salt: chloride) [Example 67, 2-amino-4-(2-aminothiazol-5-yl)-6-methoxypyridine-3,5-dicarbonitrile mono hydro chloride], for which the melting point is 240 to 242 °C (dec.). For the compound `COc1nc(NC(=O)N(C)C)c(C#N)c(-c2ccccc2F)c1C#N` [Example 71, 3-[3,5-dicyano-4-(2-fluorophenyl)-6-methoxypyridin-2-yl]-1,1-dimethylurea], the melting point is 82 to 86 °C. Compound `CCC(=O)Nc1nc(OC)c(C#N)c(-c2ccccc2F)c1C#N` [Example 401, N-[3,5-dicyano-4-(2-fluorophenyl)-6-methoxypyridin-2-yl]propionamide] had a melting point of 168 to 169 °C. Consider `COCC(=O)Nc1nc(OCC(F)F)c(C#N)c(-c2ccccc2F)c1C#N` (hydrate or solvate) [Example 61, N-[3,5-dicyano-6-(2,2-difluoroethoxy)-4-(2-fluorophenyl)pyridin-2-yl]-2-metho xyacetamide], for which the melting point is 108 to 109 °C. The same measure for `COc1nc(N)c(C#N)c(-c2ccc(CN)cc2)c1C#N.Cl`: greater than 300 °C; for `CSc1nc(O)c(C#N)c(-c2cccs2)c1C#N` [Example 23, 2-hydroxy-6-methylsulfanyl-4-thiophen-2-ylpyridine-3,5-dicarbonitrile]: 245 °C (dec.); for `COc1nc(NC(=O)c2cccs2)c(C#N)c(-c2ccccc2F)c1C#N` [Example 414, N-[3,5-dicyano-4-(2-fluorophenyl)-6-methoxypyridin-2-yl]thiophene-2-carboxamide]: 208 to 209 °C. The compound `COc1nc(NC(=O)Cc2ccccc2)c(C#N)c(-c2ccccc2F)c1C#N` [Example 416, N-[3,5-dicyano-4-(2-fluorophenyl)-6-methoxypyridin-2-yl]-2-phenylacetamide] returned a melting point of 206 to 208 °C. The figure for `COc1nc(NC(=O)C(F)(F)F)c(C#N)c(-c2ccccc2F)c1C#N` [Example 69, N-[3,5-dicyano-4-(2-fluorophenyl)-6-methoxypyridin-2-yl]-2,2,2-trifluoroacetamide] is 142 to 145 °C; for `COc1nc(N)c(C#N)c(-c2ccc3nc[nH]c3c2)c1C#N` (as salt: HCl) [Example 173] it is 299 to 300 °C. Take `N#Cc1c(N)nc(SCc2ccccc2)c(C#N)c1-c1ccccc1` [Example 217]: the melting point fell in the range of 212 to 213 °C.

With `N#Cc1c(N)nc(Oc2cccc(C(=O)O)c2)c(C#N)c1-c1ccccc1` [Example 31, 3-[(6-amino-3,5-dicyano-4-phenylpyridin-2-yl)oxy]benzoic acid], the melting point was in the range of 284 to 286 °C. In the case of `Cl.Cl.N#Cc1c(NCCN)nc(NCCN)c(C#N)c1-c1ccccc1`, the melting point was greater than 280 °C.

Turning to `COc1nc(N)c(C#N)c(-c2ccc(N)cc2)c1C#N.Cl.O` (hydrate or solvate) [Example 20, 2-amino-(4-aminophenyl)-6-methoxypyridine-3,5-dicarbonitrile monohydrochloride monohydrate], the melting point is greater than 300 °C.
